Measurements: ChEMBL document CHEMBL3526109 (Drug Metab Dispos, 2011)

How the values were obtained:
[1] = Drug excretion in human feces treated with [14C]brivanib alaninate at 800 mg, po administered as single dose […] by HPLC analysis; format: ADME, organism-based; settings: in vivo
Plasma [2] = assay: Drug level in Sprague-Dawley rat plasma assessed as compound formation treated with [14C]brivanib alaninate at 100 mg/kg, po administered as single dose via gavage measured after 6 hrs by HPLC analysis; format: ADME, organism-based; settings: in vivo
[3] = Drug excretion in bile duct-cannulated rat bile treated with [14C]brivanib alaninate at 100 mg/kg, po administered as single dose via gavage by HPLC analysis; format: ADME, organism-based; settings: in vivo
Cynomolgus monkey [4] = assay: AUC (0 to 12 hrs) cynomolgus monkey plasma treated with [14C]brivanib alaninate at 10 mg/kg, po administered as single oral dose by HPLC analysis; format: ADME, organism-based, Macaca fascicularis; settings: in vivo
Cynomolgus monkey [5] = assay: Drug uptake in cynomolgus monkey plasma treated with [14C]brivanib alaninate assessed as AUC (0 to 12 hrs) of total radio activity at 10 mg/kg, po administered as single oral dose by HPLC analysis; format: ADME, organism-based, Macaca fascicularis; settings: in vivo
Homo sapiens [6] = assay: Drug uptake in human plasma treated with [14C]brivanib alaninate assessed as AUC (0 to 12 hrs) of total radio activity at 800 mg, po administered as single oral dose by HPLC analysis; format: ADME, organism-based; settings: in vivo
[7] = Drug excretion in bile duct-cannulated cynomolgus monkey bile treated with [14C]brivanib alaninate at 10 mg/kg, po administered as single dose via gavage by HPLC analysis; format: ADME, organism-based, Macaca fascicularis; settings: in vivo
Plasma [8] = assay: Drug level in human plasma assessed as compound formation treated with [14C]brivanib alaninate at 800 mg, po administered as single dose via gavage measured after 4 hrs by HPLC analysis; format: ADME, organism-based; settings: in vivo
Plasma [9] = assay: Drug level in human plasma assessed as compound formation treated with [14C]brivanib alaninate at 800 mg, po administered as single dose via gavage measured after 8 hrs by HPLC analysis; format: ADME, organism-based; settings: in vivo
Homo sapiens [10] = assay: AUC (0 to 12 hrs) human plasma treated with [14C]brivanib alaninate at 800 mg, po administered as single oral dose by HPLC analysis; format: ADME, organism-based; settings: in vivo
Plasma [11] = assay: Drug level in human plasma assessed as compound formation treated with [14C]brivanib alaninate at 800 mg, po administered as single dose via gavage measured after 2 hrs by HPLC analysis; format: ADME, organism-based; settings: in vivo
Plasma [12] = assay: Drug level in cynomolgus monkey plasma assessed as compound formation treated with [14C]brivanib alaninate at 10 mg/kg, po administered as single dose via gavage measured after 2 hrs by HPLC analysis; format: ADME, organism-based, Macaca fascicularis; settings: in vivo
Plasma [13] = assay: Drug level in cynomolgus monkey plasma assessed as compound formation treated with [14C]brivanib alaninate at 10 mg/kg, po administered as single dose via gavage measured after 4 hrs by HPLC analysis; format: ADME, organism-based, Macaca fascicularis; settings: in vivo
Rattus norvegicus [14] = assay: AUC (0 to 6 hrs) Sprague-Dawley rat plasma treated with [14C]brivanib alaninate at 100 mg/kg, po administered as single oral dose by HPLC analysis; format: ADME, organism-based; settings: in vivo
Rattus norvegicus [15] = assay: Drug uptake in Sprague-Dawley rat plasma treated with [14C]brivanib alaninate assessed as AUC (0 to 6 hrs) of total radio activity at 100 mg/kg, po administered as single oral dose by HPLC analysis; format: ADME, organism-based; settings: in vivo
Plasma [16] = assay: Drug level in human plasma assessed as compound formation treated with [14C]brivanib alaninate at 800 mg, po administered as single dose via gavage measured after 1 hr by HPLC analysis; format: ADME, organism-based; settings: in vivo
[17] = Drug excretion in cynomolgus monkey urine treated with [14C]brivanib alaninate at 10 mg/kg, po administered as single dose via gavage by HPLC analysis; format: ADME, organism-based, Macaca fascicularis; settings: in vivo
[18] = Drug excretion in Sprague-Dawley rat feces treated with [14C]brivanib alaninate at 100 mg/kg, po administered as single dose via gavage by HPLC analysis; format: ADME, organism-based; settings: in vivo
Plasma [19] = assay: Drug level in Sprague-Dawley rat plasma assessed as compound formation treated with [14C]brivanib alaninate at 100 mg/kg, po administered as single dose via gavage measured after 1 hr by HPLC analysis; format: ADME, organism-based; settings: in vivo
Plasma [20] = assay: Drug level in cynomolgus monkey plasma assessed as compound formation treated with [14C]brivanib alaninate at 10 mg/kg, po administered as single dose via gavage measured after 1 hr by HPLC analysis; format: ADME, organism-based, Macaca fascicularis; settings: in vivo
Plasma [21] = assay: Drug level in cynomolgus monkey plasma assessed as compound formation treated with [14C]brivanib alaninate at 10 mg/kg, po administered as single dose via gavage measured after 12 hrs by HPLC analysis; format: ADME, organism-based, Macaca fascicularis; settings: in vivo
[22] = Drug level in Sprague-Dawley rat urine treated with [14C]brivanib alaninate at 100 mg/kg, po administered as single dose via gavage by mass spectrometry; format: ADME, organism-based; settings: in vivo
Plasma [23] = assay: Drug level in Sprague-Dawley rat plasma assessed as compound formation treated with [14C]brivanib alaninate at 100 mg/kg, po administered as single dose via gavage measured after 2 hrs by HPLC analysis; format: ADME, organism-based; settings: in vivo
Plasma [24] = assay: Drug level in cynomolgus monkey plasma assessed as compound formation treated with [14C]brivanib alaninate at 10 mg/kg, po administered as single dose via gavage measured after 6 hrs by HPLC analysis; format: ADME, organism-based, Macaca fascicularis; settings: in vivo
Plasma [25] = assay: Drug level in human plasma assessed as compound formation treated with [14C]brivanib alaninate at 800 mg, po administered as single dose via gavage measured after 12 hrs by HPLC analysis; format: ADME, organism-based; settings: in vivo
[26] = Drug excretion in human urine treated with [14C]brivanib alaninate at 800 mg, po administered as single dose […] by HPLC analysis; format: ADME, organism-based; settings: in vivo
[27] = Drug excretion in cynomolgus monkey feces treated with [14C]brivanib alaninate at 10 mg/kg, po administered as single dose via gavage by HPLC analysis; format: ADME, organism-based, Macaca fascicularis; settings: in vivo
Plasma [28] = assay: Drug level in Sprague-Dawley rat plasma assessed as compound formation treated with [14C]brivanib alaninate at 100 mg/kg, po administered as single dose via gavage measured after 6 hrs by mass spectrometry; format: ADME, organism-based; settings: in vivo
[29] = Drug excretion in Sprague-Dawley rat urine treated with [14C]brivanib alaninate at 100 mg/kg, po administered as single dose via gavage by HPLC analysis; format: ADME, organism-based; settings: in vivo
Plasma [30] = assay: Drug level in Sprague-Dawley rat plasma assessed as compound formation treated with [14C]brivanib alaninate at 100 mg/kg, po administered as single dose via gavage measured after 2 hrs by mass spectrometry; format: ADME, organism-based; settings: in vivo
[31] = Drug level in bile duct-cannulated rat bile treated with [14C]brivanib alaninate at 100 mg/kg, po administered as single dose via gavage by mass spectrometry; format: ADME, organism-based; settings: in vivo
Plasma [32] = assay: Drug level in Sprague-Dawley rat plasma assessed as compound formation treated with [14C]brivanib alaninate at 100 mg/kg, po administered as single dose via gavage measured after 1 hr by mass spectrometry; format: ADME, organism-based; settings: in vivo
[33] = molecular target: Vascular endothelial growth factor receptor 2 (Homo sapiens, UniProt P35968); assay: Inhibition of human recombinant VEGFR-2
[34] = molecular target: Fibroblast growth factor receptor 1 (Homo sapiens, UniProt P11362); assay: Inhibition of human recombinant FGFR-1
[35] = Drug level in cynomolgus monkey urine treated with [14C]brivanib alaninate at 10 mg/kg, po administered as single dose via gavage by mass spectrometry; format: ADME, organism-based, Macaca fascicularis; settings: in vivo

Chain of Vascular endothelial growth factor receptor 2 (P35968 whole entry): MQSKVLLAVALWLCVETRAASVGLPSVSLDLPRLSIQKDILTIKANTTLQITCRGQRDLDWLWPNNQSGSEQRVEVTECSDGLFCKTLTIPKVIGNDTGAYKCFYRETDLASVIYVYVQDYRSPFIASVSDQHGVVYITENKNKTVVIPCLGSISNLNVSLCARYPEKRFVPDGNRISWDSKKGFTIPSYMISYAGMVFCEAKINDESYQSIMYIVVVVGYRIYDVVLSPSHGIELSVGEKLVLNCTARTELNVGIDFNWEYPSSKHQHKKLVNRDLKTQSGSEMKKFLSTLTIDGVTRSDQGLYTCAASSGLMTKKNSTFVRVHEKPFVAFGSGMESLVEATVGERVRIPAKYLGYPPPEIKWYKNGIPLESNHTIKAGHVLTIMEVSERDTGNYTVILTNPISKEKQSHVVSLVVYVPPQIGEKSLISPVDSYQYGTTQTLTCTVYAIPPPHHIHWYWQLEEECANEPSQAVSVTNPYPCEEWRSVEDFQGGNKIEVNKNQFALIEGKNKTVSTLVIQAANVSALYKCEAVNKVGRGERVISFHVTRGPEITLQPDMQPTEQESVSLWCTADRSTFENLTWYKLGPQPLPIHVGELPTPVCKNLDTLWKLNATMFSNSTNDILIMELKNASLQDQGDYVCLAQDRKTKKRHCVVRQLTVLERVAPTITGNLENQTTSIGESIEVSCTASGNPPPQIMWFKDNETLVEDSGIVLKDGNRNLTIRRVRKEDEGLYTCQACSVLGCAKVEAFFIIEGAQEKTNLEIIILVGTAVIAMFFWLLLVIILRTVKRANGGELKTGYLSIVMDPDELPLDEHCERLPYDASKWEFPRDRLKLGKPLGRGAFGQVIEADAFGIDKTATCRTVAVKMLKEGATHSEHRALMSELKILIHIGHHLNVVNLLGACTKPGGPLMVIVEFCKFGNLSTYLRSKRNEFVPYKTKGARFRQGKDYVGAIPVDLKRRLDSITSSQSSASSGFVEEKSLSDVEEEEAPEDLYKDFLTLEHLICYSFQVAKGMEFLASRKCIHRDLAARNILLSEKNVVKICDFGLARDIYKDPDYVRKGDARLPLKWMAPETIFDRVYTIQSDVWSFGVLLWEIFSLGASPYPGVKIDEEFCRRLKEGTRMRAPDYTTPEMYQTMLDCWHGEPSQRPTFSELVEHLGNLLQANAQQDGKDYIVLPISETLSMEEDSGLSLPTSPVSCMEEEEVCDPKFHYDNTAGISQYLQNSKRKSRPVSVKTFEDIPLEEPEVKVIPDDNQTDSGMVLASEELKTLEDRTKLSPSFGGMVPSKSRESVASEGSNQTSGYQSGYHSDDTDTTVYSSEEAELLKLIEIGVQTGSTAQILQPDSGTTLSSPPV
Chain of Fibroblast growth factor receptor 1 (P11362 whole entry): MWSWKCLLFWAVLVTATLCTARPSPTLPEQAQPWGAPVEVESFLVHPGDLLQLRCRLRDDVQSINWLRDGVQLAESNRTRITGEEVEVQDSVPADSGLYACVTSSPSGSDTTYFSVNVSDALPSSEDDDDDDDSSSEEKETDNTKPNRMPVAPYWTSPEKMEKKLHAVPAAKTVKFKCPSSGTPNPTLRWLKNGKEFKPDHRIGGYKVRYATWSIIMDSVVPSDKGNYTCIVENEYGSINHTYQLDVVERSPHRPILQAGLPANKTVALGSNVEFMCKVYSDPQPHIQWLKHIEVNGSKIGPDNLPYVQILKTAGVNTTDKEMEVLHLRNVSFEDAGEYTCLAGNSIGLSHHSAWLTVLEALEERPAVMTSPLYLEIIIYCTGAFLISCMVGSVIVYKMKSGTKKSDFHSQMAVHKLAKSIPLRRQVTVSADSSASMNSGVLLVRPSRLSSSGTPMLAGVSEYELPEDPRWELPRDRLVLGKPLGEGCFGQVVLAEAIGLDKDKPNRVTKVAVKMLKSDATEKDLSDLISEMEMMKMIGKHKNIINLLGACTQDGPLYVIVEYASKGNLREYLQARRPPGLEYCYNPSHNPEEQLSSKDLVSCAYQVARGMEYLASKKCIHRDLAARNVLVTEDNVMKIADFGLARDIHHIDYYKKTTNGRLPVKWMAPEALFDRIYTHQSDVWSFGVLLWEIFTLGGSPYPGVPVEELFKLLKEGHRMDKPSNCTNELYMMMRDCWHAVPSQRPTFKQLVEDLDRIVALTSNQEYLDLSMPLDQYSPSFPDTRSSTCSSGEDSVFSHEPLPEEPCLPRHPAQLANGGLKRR

Row | Structure (SMILES) | Compound recovery [1] | Compound recovery (Plasma [2]) [%] | Compound recovery [3] [%] | Compound recovery [7] | Compound recovery (Plasma [8]) | Compound recovery (Plasma [9]) | Compound recovery (Plasma [11]) | Compound recovery (Plasma [12]) [%] | Compound recovery (Plasma [13]) [%] | Compound recovery (Plasma [16]) | Compound recovery [17] [%] | Compound recovery [18] | Compound recovery (Plasma [19]) [%] | Compound recovery (Plasma [20]) [%] | Compound recovery (Plasma [21]) | Compound recovery (Plasma [23]) [%] | Compound recovery (Plasma [24]) [%] | Compound recovery (Plasma [25]) | Compound recovery [26] | Compound recovery [27] | other results
1 | Cc1c(OC[C@@H](C)OS(=O)(=O)O)cn2ncnc(Oc3ccc4[nH]c(CO)cc4c3F)c12 | 8.3% | 4.3 | 1 | 10.3% | 3.6% | 1.7% | 2.9% | 1.5 | 3.5 | 0.7% | 4.9 | 4.8% | 5.8 | 3 | 3% | 3.1 | 7.9 | 4.1% | 3.6% | 2.4% | AUC (Cynomolgus monkey [4]): 3272.2 ugequiv/l.hr; AUC metabolite/AUC radiolabel (Cynomolgus monkey [5]): 4.7%; AUC metabolite/AUC radiolabel (Homo sapiens [6]): 1.8%; AUC (Homo sapiens [10]): 1202.5 ugequiv/l.hr; AUC (Rattus norvegicus [14]): 5443.1 ugequiv/l.hr; AUC metabolite/AUC radiolabel (Rattus norvegicus [15]): 3.9%; Compound recovery [22]: metabolite_detected
2 | Cc1cc2c(F)c(Oc3ncnn4cc(OC[C@@H](C)O[C@@H]5O[C@H](C(=O)O)[C@@H](O)[C@H](O)[C@H]5O)c(C)c34)ccc2[nH]1 | metabolite_not_detected | – | – | 0.6% | metabolite_not_detected | metabolite_not_detected | 2.3% | 2.2 | 1.9 | 2.6% | 0.3 | metabolite_not_detected | – | 7.2 | metabolite_not_detected | – | 0.9 | metabolite_not_detected | 1.1% | metabolite_not_detected | Compound recovery (Plasma [28]): metabolite_detected; Compound recovery [29]: metabolite_not_detected; Compound recovery (Plasma [30]): metabolite_detected; Compound recovery [31]: metabolite_detected; Compound recovery (Plasma [32]): metabolite_detected
3 | Cc1c(OC[C@@H](C)O)cn2ncnc(Oc3ccc4[nH]c(C(=O)O)cc4c3F)c12 | 7.4% | 5.3 | 0.9 | 10.5% | 11.4% | 4.9% | 7.6% | 6.4 | 8.6 | 6.8% | 1.1 | 12.8% | 5.1 | 3.1 | 3.5% | 5.3 | 6.9 | 4.6% | 0.4% | 22% | IC50 [33]: > 30 µM; AUC (Cynomolgus monkey [4]): 5006 ugequiv/l.hr; AUC metabolite/AUC radiolabel (Cynomolgus monkey [5]): 7.2%; AUC metabolite/AUC radiolabel (Homo sapiens [6]): 6.3%; Compound recovery [29]: 0.5%; AUC (Homo sapiens [10]): 4119.3 ugequiv/l.hr; AUC (Rattus norvegicus [14]): 12825.3 ugequiv/l.hr; AUC metabolite/AUC radiolabel (Rattus norvegicus [15]): 9.2%; IC50 [34]: > 30 µM
4 | Cc1c(OC[C@@H](C)OS(=O)(=O)O)cn2ncnc(Oc3ccc4[nH]c(C(=O)O)cc4c3F)c12 | 26.6% | – | 2.5 | 4.9% | – | – | – | – | – | – | – | 5.7% | – | – | – | – | – | – | 2.4% | 4% | Compound recovery [29]: metabolite_not_detected; Compound recovery [35]: metabolite_detected
5 | Cc1cc2c(F)c(Oc3ncnn4cc(OCC(=O)O)c(C)c34)ccc2[nH]1 | metabolite_not_detected | 6 | 1.4 | metabolite_not_detected | metabolite_not_detected | metabolite_not_detected | metabolite_not_detected | 1.7 | 2.7 | metabolite_not_detected | 0.2 | 1.8% | 4.7 | 0.9 | 3.3% | 6.4 | 2.6 | metabolite_not_detected | metabolite_not_detected | 0.5% | Compound recovery [22]: metabolite_detected
